# Assay results reported in PMC7560712, “Analysis of translating mitoribosome reveals functional characteristics of translation in mitochondria of fungi” (Nature Communications, 2020).
# Experiments:
# [1] = biological target: T1, pocket formed by mL40, uL5m, and rRNA H84-ES3 (central protuberance of mtLSU) (Neurospora crassa, UniProt Q1K6P0+V5IQE0); assay: cryo-EM structure; format: binding; conditions: co-purified endogenous ligand; assignment 'most likely'; Arg295 of mL40 stacks on nicotinamide; rRNA part of site; oxidation state not stated
# T1 construct: gene mrpl28; native proteins within the mtLSU of intact mitoribosomes; site also formed by 23S rRNA (H84-ES3, A2755, U2759)
# [2] = biological target: T2, mS29 (mitoribosomal small subunit) (Neurospora crassa, UniProt Q7SD06); assay: cryo-EM structure; format: binding; conditions: co-purified endogenous nucleotide in P-loop pocket; assigned as ATP rather than GDP from density and chemical environment (Leu150); local resolution 2.77 A
# T2 construct: gene rsm23; native mS29 within the mtSSU of intact mitoribosomes purified from mycelia mitochondria; His-tag is on Oxa1 only
# T2 sequence (Q7SD06 1-469): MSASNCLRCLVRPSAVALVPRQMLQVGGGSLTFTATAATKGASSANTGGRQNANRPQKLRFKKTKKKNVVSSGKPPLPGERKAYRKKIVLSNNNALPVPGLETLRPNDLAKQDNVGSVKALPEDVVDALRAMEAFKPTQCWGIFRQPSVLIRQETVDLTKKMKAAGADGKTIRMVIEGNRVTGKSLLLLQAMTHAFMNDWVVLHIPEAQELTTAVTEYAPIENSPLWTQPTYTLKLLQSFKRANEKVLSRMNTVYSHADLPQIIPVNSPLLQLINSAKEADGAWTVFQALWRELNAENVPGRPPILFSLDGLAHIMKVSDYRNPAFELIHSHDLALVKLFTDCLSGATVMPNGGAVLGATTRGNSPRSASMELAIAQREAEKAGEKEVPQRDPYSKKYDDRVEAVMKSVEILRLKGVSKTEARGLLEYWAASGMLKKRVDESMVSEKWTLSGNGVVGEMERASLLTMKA
# T1 sequence (Q1K6P0 whole entry): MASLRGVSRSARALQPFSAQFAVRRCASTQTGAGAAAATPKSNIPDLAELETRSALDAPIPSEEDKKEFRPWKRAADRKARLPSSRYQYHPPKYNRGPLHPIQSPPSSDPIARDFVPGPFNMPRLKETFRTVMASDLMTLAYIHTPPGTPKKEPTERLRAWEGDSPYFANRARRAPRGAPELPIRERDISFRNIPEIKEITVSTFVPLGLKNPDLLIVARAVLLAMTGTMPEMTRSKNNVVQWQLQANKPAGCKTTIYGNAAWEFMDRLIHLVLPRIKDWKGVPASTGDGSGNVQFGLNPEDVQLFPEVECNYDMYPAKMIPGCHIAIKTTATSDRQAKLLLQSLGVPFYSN
# T1 sequence (V5IQE0 whole entry): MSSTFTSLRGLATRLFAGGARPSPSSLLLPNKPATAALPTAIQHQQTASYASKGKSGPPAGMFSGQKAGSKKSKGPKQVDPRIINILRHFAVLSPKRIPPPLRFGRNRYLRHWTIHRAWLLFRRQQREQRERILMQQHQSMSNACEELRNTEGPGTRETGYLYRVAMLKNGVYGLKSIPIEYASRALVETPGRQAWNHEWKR
SMILES,cryo-EM structure [1],cryo-EM structure [2]
NC(=O)c1ccc[n+]([C@@H]2O[C@H](COP(=O)([O-])OP(=O)(O)OC[C@H]3O[C@@H](n4cnc5c(N)ncnc54)[C@H](O)[C@@H]3O)[C@@H](O)[C@H]2O)c1 [NAD],we conclude that it is most likely to be NAD,
Nc1ncnc2c1ncn2[C@@H]1O[C@H](COP(=O)(O)OP(=O)(O)OP(=O)(O)O)[C@@H](O)[C@H]1O [ATP],,the correct assignment for the nucleotide is adenosine triphosphate (ATP)
